# Patent US20200390755A1, “COMPOUND FOR TREATING NERVOUS SYSTEM DISEASES AND USE THEREOF” (SHAANXI MICOT TECHNOLOGY CO., LTD., priority 2018, published 2020)
# Tested on: WT mice
# Experiment: DARPP32 protein level in striatum by Western blotting, WT mice
# Format: in vivo, mouse
# Conditions: 5 mg/kg/d until 25 weeks, WT Vehicle = 100, n = 3
# Description: 7-week-old N171-82Q HD male mice were paired with female B6C3F1/J hybrid mice to obtain newborn mice. From 21 days of age, male mice were housed in separate cages. 0.5 cm of mouse tail tissue was removed to extract DNA to determine the genotype of the mouse, such that N171-82Q HD mice and WT mice needed for the experiment were obtained. The mice were randomly divided into WT Vehicle group (normal mice), WT test compound group (administration group of normal mice, 5 mg/kg/d, n=10), HD Vehicle group (blank group of HD mice, n=15), HD test compound group (administration groups 1-5 of HD mice, 5 mg/kg/d, n=10). The test compound was suspended in 1% CMC-Na solution and administered by intragastric administration until the end of the study. The weights of the mice were measured every week. Behavioral tests were performed at 12 weeks, 18 weeks, and 24 weeks of age to investigate motor function. At 20 weeks, 3 samples of tissue from each group were used for western blotting and immunohistochemistry. At 24 weeks, MRI scans were performed. At the end of the study, the effect of the test compound on the mortality of mice was evaluated. […] The total protein in the striatum tissue was extracted, and the protein level of DARPP 32 was detected by Western blotting experiment. […] The protein was extracted, and the protein level of DARPP 32 was detected by Western blotting.
row,SMILES,Relative intensity of DARPP32 protein
1,"O=c1cc(-c2ccc(N3CCCCC3)cc2)oc2c(O)c(O)ccc12 [Example 1, 7,8-dihydroxy-2-(4-(piperidin-1-yl)phenyl)-4H-chromen-4-one]",96.066 ± 5.805

# Biological target: T1, TrkB receptor (Mus musculus, UniProt P15209)
# T1 construct: The culture continued until the primary cortical neuron cells mature; endogenous in cells; host or cells: primary cortical neurons from E18 mouse embryos (N171-82Q WT male x B6C3F1/J female)
# Experiment: Western blotting of p-TrkB and t-TrkB in primary cortical neuron cells
# Format: cell-based
# Conditions: 500 nM, 10 min at 37° C., Vehicle = 100, n = 3
# Description: N171-82Q WT male mice were mated with female B6C3F1/J hybrid mice. B6C3F1/J mice 18 days after pregnancy were anesthetized with isoflurane and dissected to remove embryos, which were then placed in a 10 cm Petri dish containing Leibovitz's buffer. The head of the embryo was cut off, and the brain was peeled off to obtain the whole mouse brain, which was then placed in a new 10 cm Petri dish containing Leibovitz's buffer. The neurocortex of the brain was separated and placed in a 15 mL centrifuge tube containing 3 mL Leibovitz's buffer. The centrifuge tube was centrifuged at 1000 rpm for 1 minute, and the Leibovitz's buffer was gently removed from the centrifuge tube, and then 750 μL of 0.25% trypsin-EDTA and 75 μL of 0.1% DNase (2000 U/mL) were added to digest at 37° C. for 15 min. 750 μL of DMEM medium containing 5% FBS was added to stop the digestion. The cells were mixed well, and centrifuged at 1000 rpm for 5 minutes. Trypins/DNase mixture was removed, and 750 μL of Neurobasal medium (B-27, Glutamax, P/S) was added. The cells were mixed by gently pipetting with a pipette for 30 times. The cell suspension was filtered with a 40 µm filter and transferred to another new 50 mL centrifuge tube. 10 μL of the cell suspension was added to 90 μL of DMEM (diluted 10 times), and 10 μL of the liquid mixture was placed on a hemocytometer so that the suspension filled between the cover slip and the counting plate for counting. The cells in the four large grids of the plate were counted, wherein for the cells across the line, only the cells on the left and upper side lines were counted. The following formulas were used:
# Number of cells/mL=total number of cells in the four large grids/4×10^4/mL
# Total number of cells/mL=total number of cells in the four large grids/4×10^4/mL×dilution factor.
# After counting, the cells were diluted with Neurobasal selection medium so that 1 mL of Neurobasal culture medium contained 0.5×10^6 cells.
# 200 μL of PDL solution previously heated in a 37° C. water bath was added to each well of a 6-well plate, and incubated at 37° C. overnight to allow PDL to evenly coat the well plate. The PDL solution was absorbed and the plate was washed twice with PBS. Before use, the PBS remaining on the plate was absorbed and the cover was opened to dry the plate in a super clean bench. 2 mL of cell suspension was added to each well (37° C., 5% CO2), and the cells were cultured until adherence. The culture medium was replaced and the culture continued for 3 days, and then the growth status of neurons was observed. Every other 3 days, half of the medium was removed and replaced with fresh complete medium. The culture continued until the primary cortical neuron cells mature (usually mature on the 14th day of culture).
# After the primary cortical neuron cells have matured, appropriate amount of freshly prepared culture medium was added until final volume in each well was 2 mL. The experiment included a blank control group (Vehicle), a positive control group BDNF (10 ng/mL), a control compound group (500 nM), and 6 test compound groups (500 nM). Three repeats were set for each dose. After incubating at 37° C. for 10 min, the culture solution was discarded and the cells were washed with pre-chilled PBS, and then 40 μL of pre-chilled lysate (RIPA buffer 10 mL and protease and phosphatase inhibitor 100 μL) was added to each well for lysis on ice for 30 min. After lysis, the cell was crushed by ultrasonic cell crusher, centrifuged at 14000 rpm for 20 min at 4° C. The supernatant was transferred to a new 1.5 mL centrifuge tube to extract protein. Western blotting experiments were used to detect the protein levels of (A) p-TrkB and t-TrkB; (B) p-AKT and t-AKT.
# The software Sigmaplot 13.0 was used for statistical analysis of the data, and the data of each group was expressed as mean±standard error (x±SEM). […]
# T1 sequence (P15209 32-821): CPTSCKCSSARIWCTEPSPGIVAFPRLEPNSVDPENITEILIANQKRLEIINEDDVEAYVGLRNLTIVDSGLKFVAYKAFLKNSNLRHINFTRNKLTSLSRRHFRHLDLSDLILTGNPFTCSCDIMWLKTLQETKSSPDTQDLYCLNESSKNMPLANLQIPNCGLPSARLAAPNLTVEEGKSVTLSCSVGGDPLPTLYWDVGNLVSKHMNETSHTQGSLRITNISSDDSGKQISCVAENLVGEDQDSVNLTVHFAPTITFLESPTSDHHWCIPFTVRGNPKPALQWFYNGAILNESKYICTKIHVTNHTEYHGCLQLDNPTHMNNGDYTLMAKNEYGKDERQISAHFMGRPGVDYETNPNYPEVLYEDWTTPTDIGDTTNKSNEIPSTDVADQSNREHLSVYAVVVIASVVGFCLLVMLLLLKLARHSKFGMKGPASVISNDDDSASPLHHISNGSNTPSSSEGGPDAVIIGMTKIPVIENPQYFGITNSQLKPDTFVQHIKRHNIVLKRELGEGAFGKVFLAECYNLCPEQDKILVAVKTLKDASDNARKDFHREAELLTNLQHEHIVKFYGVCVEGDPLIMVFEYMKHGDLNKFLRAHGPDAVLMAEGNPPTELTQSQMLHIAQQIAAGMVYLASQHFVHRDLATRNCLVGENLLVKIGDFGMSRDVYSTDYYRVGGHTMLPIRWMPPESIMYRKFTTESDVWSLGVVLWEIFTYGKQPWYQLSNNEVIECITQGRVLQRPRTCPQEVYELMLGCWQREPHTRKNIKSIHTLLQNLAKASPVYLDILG
row,SMILES,Relative intensity of p-TrkB/t-TrkB protein
1,"O=c1cc(-c2ccc(N3CCCCC3)cc2)oc2c(O)c(O)ccc12 [Example 1, 7,8-dihydroxy-2-(4-(piperidin-1-yl)phenyl)-4H-chromen-4-one]",216.727 ± 8.642
2,"COc1ccc2c(=O)cc(-c3ccc(N4CCCCC4)cc3)oc2c1OC [Example 2, 7,8-dimethoxy-2-(4-(piperidin-1-yl)phenyl)-4H-chromen-4-one]",206.453 ± 7.574
3,"CN(C)C1CCN(c2ccc(-c3cc(=O)c4ccc(O)c(O)c4o3)cc2)CC1 [Example 3, 2-(4-(4-(dimethylamino)piperidin-1-yl)phenyl)-7,8-dihydroxy-4H-chromen-4-one]",234.685 ± 14.695
4,"CC1(C)CCN(c2ccc(-c3cc(=O)c4ccc(O)c(O)c4o3)cc2)CC1 [Example 4, 2-(4-(4,4-dimethylpiperidin-1-yl)phenyl)-7,8-dihydroxy-4H-chromen-4-one]",216.198 ± 8.865
5,"CC1CC(C)CN(c2ccc(-c3cc(=O)c4ccc(O)c(O)c4o3)cc2)C1 (stereo not drawn) [Example 5, 2-(4-(3,5-dimethylpiperidin-1-yl)phenyl)-7,8-dihydroxy-4H-chromen-4-one]",213.254 ± 12.379
